# Experimental data: publication PMC9530963, “A cathelicidin antimicrobial peptide from Hydrophis cyanocinctus inhibits Zika virus infection by downregulating expression of a viral entry factor” (The Journal of Biological Chemistry, 2022)
# Tested on: AXL
# Experiment: Effect of AC and PKA on Hc-CATH-induced AXL downregulation in A549 cells
# Format: cell-based, Homo sapiens
# Conditions: 1 h pre-incubation of A549 cells, then Hc-CATH 5 μM, 24 h, Western blot
# Method: Figure 6 Hc-CATH downregulates AXL via inhibiting COX-2/PGE2/AC/PKA pathway.A, effect of Hc-CATH on COX-2 protein level. A549 cells were incubated with Hc-CATH (1.25, 2.5, or 5 μM) or PBS (solvent of Hc-CATH) at 37 °C for 24 h, COX-2 protein level was examined by Western blot (upper panel) and analyzed by ImageJ (lower panel). B, effect of Hc-CATH on the enzymatic activity of COX-2. Hc-CATH (1.25, 2.5, 5, and 10 μM) or PBS was incubated with COX-2. After incubation at 37 °C for 10 min, the enzymatic activity of COX-2 was detected by enzyme activity inhibitor screening kit. Celecoxib (COX-2 inhibitor, 100 nM) was used as positive control. C, effect of Hc-CATH on PGE2 production. A549 cells were incubated with Hc-CATH (5 μM) at 37 °C. After incubation for 24 h, the level of PGE2 in the cell supernatant was detected by ELISA. D and E, effect of AC (D) and PKA (E) on Hc-CATH-induced AXL downregulation. A549 cells were incubated with forskolin (FSK, agonist of AC, 10 μM) or H89 (inhibitor of PKA, 5 μM) at 37 °C. After incubation for 1 h, the culture media were removed, cells were washed three times with PBS, and fresh culture media were added to cells in the presence of Hc-CATH (5 μM). After incubation for 24 h, AXL protein level was examined by Western blot (upper panel of D and E) and analyzed by ImageJ (lower panel of D and E). ns, not significant, ∗∗p < 0.01, and ∗∗∗p < 0.001. […]
SMILES,effect on Hc-CATH-induced AXL downregulation (FSK 10 μM),effect on Hc-CATH-mediated AXL downregulation (H89 5 μM)
"C=C[C@@]1(C)CC(=O)[C@]2(O)[C@@]3(C)[C@@H](O)CCC(C)(C)[C@@H]3[C@H](O)[C@H](OC(C)=O)[C@@]2(C)O1 [FSK, forskolin]",effectively counteracted the Hc-CATH-induced AXL downregulation,
O=S(=O)(NCCNC/C=C/c1ccc(Br)cc1)c1cccc2cnccc12 [H89],,significantly facilitated Hc-CATH-mediated AXL downregulation
